Test results published in PubChem BioAssay (NCI).
Several values for one entry are separate records, joined by “and”; a condition that tells them apart may be missing. Equal values may be shown once.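 Interpolation was linear, between the two tested concentrations surrounding the appropriate level; five concentrations were tested over 48 hours in 96-well plates. Here, GI50 denotes the concentration required for 50% inhibition of growth. TGI: total growth inhibition.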

What was measured:
Experiment in all cases: DTP human tumour cell line panel, 48 h
HCT-15 colon = test system: HCT-15 colon
SK-MEL-28 melanoma = test system: SK-MEL-28 melanoma
HT29 colon = test system: HT29 colon
UACC-257 melanoma = test system: UACC-257 melanoma
LXFL 529 NSCLC = test system: LXFL 529 NSCLC
DMS 114 small cell lung = test system: DMS 114 small cell lung
K-562 leukemia = test system: K-562 leukemia
SK-MEL-5 melanoma = test system: SK-MEL-5 melanoma
DU-145 prostate = test system: DU-145 prostate
MCF7 breast = test system: MCF7 breast

| Compound | TGI (HCT-15 colon) | TGI (SK-MEL-28 melanoma) | TGI (HT29 colon) | TGI (UACC-257 melanoma) | TGI (LXFL 529 NSCLC) | TGI (DMS 114 small cell lung) | TGI (K-562 leukemia) | TGI (SK-MEL-5 melanoma) | TGI (DU-145 prostate) | TGI (MCF7 breast) | GI50 (DMS 114 small cell lung) | GI50 (DU-145 prostate) [µM] | GI50 (MCF7 breast) [µM] | GI50 (HCT-15 colon) [µM] | GI50 (SK-MEL-28 melanoma) [µM] | GI50 (HT29 colon) [µM] | GI50 (UACC-257 melanoma) [µM] | GI50 (K-562 leukemia) [µM] | GI50 (SK-MEL-5 melanoma) [µM] |
| --- | --- | --- | --- | --- | --- | --- | --- | --- | --- | --- | --- | --- | --- | --- | --- | --- | --- | --- | --- |
| CC(=O)O[C@H]1CC[C@@]2(C)C(=CC[C@@H]3C2CC[C@]2(C)C(=O)NC(=O)CC32)C1 (stereo not given in full) | > 100 µM | > 100 µM | > 100 µM | > 100 µM | > 100 µM | > 100 µM | > 100 µM | > 100 µM |  |  |  |  |  |  |  |  |  |  |  |
| C=C(c1ccccc1)[C@@]1(O)CCCC[C@H]1NC(c1ccccc1)c1ccccc1 | 24.5 µM | 30.2 µM | 27.3 µM | 25.1 µM | 23.9 µM | 22.3 µM | 29.1 µM | 22.8 µM |  |  |  |  |  |  |  |  |  |  |  |
| C/C(=N\NC(=O)C[n+]1ccccc1)c1sc(-c2nc(C)c(/C(C)=N/NC(=O)C[n+]3ccccc3)s2)nc1C | > 100 µM | > 100 µM | > 100 µM | > 100 µM | > 100 µM | > 100 µM | > 100 µM | > 100 µM |  |  |  |  |  |  |  |  |  |  |  |
| COc1ccc(C(=C(C#N)C#N)c2ccc(OC)cc2)cc1 | > 100 µM | > 100 µM | > 100 µM | > 100 µM | > 100 µM | > 100 µM | > 100 µM |  |  |  |  |  |  |  |  |  |  |  |  |
| COc1ccc2c(c1)[n+]([O-])c(/C(C)=N/NC(N)=S)c(C)[n+]2[O-] | > 100 µM | > 100 µM | > 100 µM | > 100 µM | > 100 µM | > 100 µM | > 100 µM | > 69.1 µM | > 100 µM | > 100 µM |  |  |  |  |  |  |  |  |  |
| CC12CCC(=O)N1c1cc([N+](=O)[O-])ccc1N2 (stereo not given) | > 100 µM | > 100 µM | > 100 µM | > 100 µM | > 100 µM | > 100 µM | > 100 µM | > 100 µM |  |  |  |  |  |  |  |  |  |  |  |
| CC1OC(OC23C(=O)CC(C)(O)CC2(O)C=CC2=C3C(=O)c3ccc(C4CC(OC5CCC(OC6CC(O)C(O)C(C)O6)C(C)O5)C(O)C(C)O4)c(O)c3C2=O)CCC1O (stereo not given) |  | 29 µM and 27.3 µM | 36.1 µM and 27.8 µM | 31.9 µM and 28.8 µM | 28.8 µM and 23.9 µM | 31 µM and 21.2 µM | > 100 µM | 33.3 µM and 29.7 µM |  |  | 16.5 µM and 8.11 µM |  |  |  |  |  |  |  |  |
| CS(=O)(=O)OCCCCOS(C)(=O)=O | 236 µM and > 1000 µM | 232 µM and > 1000 µM | 250 µM and > 1000 µM | 230 µM and > 1000 µM | > 250 µM | 250 µM | 223 µM and > 1000 µM | 242 µM and > 1000 µM | 250 µM and > 1000 µM | 250 µM and > 1000 µM |  | 774 | 534 | > 903 | 980 | > 846 | 571 | 795 | 520 |
| C=CCNC(=O)ON1C(=O)CCC1=O | > 100 µM | > 100 µM | > 100 µM | > 100 µM | > 100 µM | > 100 µM | > 100 µM |  |  |  |  |  |  |  |  |  |  |  |  |
| CO[C@H](C(=O)O[C@H]1C(=O)N2CCC3CCC1C32C)c1ccccc1 (stereo not given in full) | > 100 µM | > 100 µM | > 100 µM | > 100 µM | > 100 µM | > 100 µM | > 100 µM | > 100 µM |  |  |  |  |  |  |  |  |  |  |  |
| N#CC1=C(c2ccccc2)NN(Cc2ccccc2)C(c2ccc(Cl)cc2)CC1=O (stereo not given) | 90.6 µM | > 100 µM | 38.7 µM | > 100 µM | > 100 µM | > 100 µM |  | > 100 µM |  |  |  |  |  |  |  |  |  |  |  |
| O=C1C[C@@H]2[C@@H](C=CC23CC3)N1O |  | > 100 µM | > 100 µM | > 100 µM | > 100 µM |  | > 100 µM | > 100 µM |  |  |  |  |  |  |  |  |  |  |  |
| CC(=O)CC(=O)ON(C)C(C)=O |  | > 100 µM | > 100 µM | 56.4 µM | > 100 µM | > 100 µM | > 100 µM | > 100 µM |  |  |  |  |  |  |  |  |  |  |  |
| C/C(=N\N)C(CN1CCCCC1)C(c1ccccc1)c1c(O)c2ccccc2oc1=O (stereo not given) | > 100 µM | > 100 µM | > 100 µM | > 100 µM | > 100 µM | > 100 µM | > 100 µM | > 100 µM | > 100 µM | > 100 µM |  |  |  |  |  |  |  |  |  |
| O=C1C2=C(C(=O)c3c(O)ccc(O)c31)N(c1cccnc1)Cc1ccccc1O2 | 0.648 µM | 0.644 µM | 4.23 µM | 1.39 µM |  |  |  | 2.99 µM | 1.17 µM | 0.912 µM |  | 0.351 | 0.191 | 0.167 | 0.266 | 0.313 | 0.399 | 0.0752 | 1.33 |
